From patent US7803797B2, “Substituted arylcyclopentenes as therapeutic agents” (Allergan, Inc., priority 2008, dated 2010)

Assays:
Format in all cases: in vivo
normotensive dogs = experiment: Intraocular pressure (IOP) reduction in normotensive dogs
Description: Compounds 14a, 14b, 16a, 16b. 22a, 22b, 33a, 33b, 34a, 34b, 35a, 35b, 46a, 46b, 51a, 51 b, 58a, 58b, 69a, 69b, 70a and 70b from above are tested in vivo to measure its ability to reduce intraocular pressure. Compound 14a is tested in normotensive dogs.

[1] = system: laser-induced hypertensive monkeys; experiment: Intraocular pressure (IOP) reduction in laser-induced hypertensive monkeys
[2] = system: lashes and adjacent hairs of the eyelids; experiment: Clinical observation of lashes in glaucoma patients treated in one eye; settings: glaucoma patients treated in only one eye
From the text: In the course of treating patients having glaucoma, treatment may only be appropriate in one eye. […] The lash appearance on the lids of the treated eyes would have appeared quite attractive if it represented a bilateral phenomenon. As a result of its asymmetric nature, the long lashes on one side could be construed as disturbing from a cosmetic standpoint. A systemic examination was preformed as a result of the asymmetric phenomenon. It soon became apparent that this altered appearance was not an isolated finding. […] Definite differences could be identified to varying degrees in the lashes and adjacent hairs of all patients who were taking the drug on a unilateral basis for longer than 6 months.
The changes in the lashes were apparent on gross inspection in several patients once attention was focused on the issue. In those with light colored hair and lashes, the differences were only seen easily with the aid of the high magnification and lighting capabilities of the slit lamp biomicroscope. In the course of glaucoma follow-up examination, attention is generally immediately focused on the eye itself. As a result of the high power magnification needed only one eye is seen at a time and the eye is seen at a high enough power that the lashes are not in focus. […]

| SMILES | intraocular pressure (IOP) change from baseline (normotensive dogs) | IOP change from baseline [1] | lash appearance, treated eye versus non-treated eye [2] |
| --- | --- | --- | --- |
| O=C(OCCN1CCOCC1)c1ccc(CCC[C@@H]2[C@@H](COc3cc(Cl)cc(CO)c3)CC[C@H]2Cl)s1 [51 b] | decreases from baseline | decreases from baseline | – |
| O=C(CCC/C=C\C[C@@H]1[C@@H](COc2cc(Cl)cc(CCO)c2)[C@H](O)C[C@H]1Cl)OCCO [Compound 14a] | decreases from baseline | decreases from baseline | – |
| O=C(CCC/C=C\C[C@@H]1[C@@H](COc2cc(Cl)cc(CCO)c2)[C@H](O)C[C@H]1Cl)OCCN1CCOCC1 [Compound 14b] | decreases from baseline | decreases from baseline | – |
| CC(=O)OCCc1cc(Cl)cc(OC[C@@H]2[C@@H](C/C=C\CCCC(=O)OCCO)[C@H](Cl)C[C@H]2O)c1 [Compound 16a] | decreases from baseline | decreases from baseline | – |
| CC(=O)OCCc1cc(Cl)cc(OC[C@@H]2[C@@H](C/C=C\CCCC(=O)OCCN3CCOCC3)[C@H](Cl)C[C@H]2O)c1 [Compound 16b] | decreases from baseline | decreases from baseline | – |
| COCc1cc(Cl)cc(OC[C@@H]2[C@@H](C/C=C\CCCC(=O)OCCO)[C@H](Cl)C[C@H]2O)c1 [Compound 22a] | decreases from baseline | decreases from baseline | – |
| COCc1cc(Cl)cc(OC[C@@H]2[C@@H](C/C=C\CCCC(=O)OCCN3CCOCC3)[C@H](Cl)C[C@H]2O)c1 [Compound 22b] | decreases from baseline | decreases from baseline | – |
| O=C(OCCO)c1ccc(CCC[C@@H]2[C@@H](COc3cc(Cl)cc(Cl)c3)[C@H](O)C[C@H]2Cl)s1 [Compound 33a] | decreases from baseline | decreases from baseline | – |
| O=C(OCCN1CCOCC1)c1ccc(CCC[C@@H]2[C@@H](COc3cc(Cl)cc(Cl)c3)[C@H](O)C[C@H]2Cl)s1 [Compound 33b] | decreases from baseline | decreases from baseline | – |
| Cc1cc(C)cc(OC[C@@H]2[C@@H](CCCc3ccc(C(=O)OCCO)s3)[C@H](Cl)C[C@H]2O)c1 [Compound 35a] | decreases from baseline | decreases from baseline | – |
| Cc1cc(C)cc(OC[C@@H]2[C@@H](CCCc3ccc(C(=O)OCCN4CCOCC4)s3)[C@H](Cl)C[C@H]2O)c1 [Compound 35b] | decreases from baseline | decreases from baseline | – |
| O=C(OCCO)c1ccc(CCC[C@H]2C(=O)CC[C@@H]2COc2cc(Cl)cc(CO)c2)s1 [Compound 46a] | decreases from baseline | decreases from baseline | – |
| O=C(OCCN1CCOCC1)c1ccc(CCC[C@H]2C(=O)CC[C@@H]2COc2cc(Cl)cc(CO)c2)s1 [Compound 46b] | decreases from baseline | decreases from baseline | – |
| O=C(OCCO)c1ccc(CCC[C@@H]2[C@@H](COc3cc(Cl)cc(CO)c3)CC[C@H]2Cl)s1 [Compound 51a] | decreases from baseline | decreases from baseline | – |
| N#C[C@@H]1C[C@@H](O)[C@H](COc2cc(Cl)cc(Cl)c2)[C@H]1CCCc1ccc(C(=O)OCCO)s1 [Compound 58a] | decreases from baseline | decreases from baseline | – |
| N#C[C@@H]1C[C@@H](O)[C@H](COc2cc(Cl)cc(Cl)c2)[C@H]1CCCc1ccc(C(=O)OCCN2CCOCC2)s1 [Compound 58b] | decreases from baseline | decreases from baseline | – |
| O=C(OCCO)c1ccc(CCCC2=CC[C@@H](O)[C@@H]2COc2cc(Cl)cc(Cl)c2)s1 [Compound 69a] | decreases from baseline | decreases from baseline | – |
| O=C(OCCN1CCOCC1)c1ccc(CCCC2=CC[C@@H](O)[C@@H]2COc2cc(Cl)cc(Cl)c2)s1 [Compound 69b] | decreases from baseline | decreases from baseline | – |
| O=C(OCCO)c1ccc(CCC[C@@H]2[C@@H](COc3cc(Cl)cc(Cl)c3)[C@H](O)C[C@H]2F)s1 [Compound 70a] | decreases from baseline | decreases from baseline | – |
| O=C(OCCN1CCOCC1)c1ccc(CCC[C@@H]2[C@@H](COc3cc(Cl)cc(Cl)c3)[C@H](O)C[C@H]2F)s1 [Compound 70b] | decreases from baseline | decreases from baseline | – |
| CCNC(=O)CCC/C=C\C[C@@H]1[C@@H](/C=C/[C@@H](O)CCc2ccccc2)[C@H](O)C[C@@H]1O [bimatoprost] | – | – | longer, thicker, and fuller in the treated eye than in the non-treated eye |
